According to patent US20100216891A1, “AROMATIC ANTIHYPERTENSIVE AGENT, AND METHOD FOR LOWERING BLOOD PRESSURE IN MAMMALS” (PANASONIC CORPORATION, priority 2008, published 2010):

Test system: male Wister strain rats
Experiment: Test Example 1: change in blood pressure of rats on presentation of aromatic compositions to the nostril
Type: in vivo
Conditions: rat, aroma presented to vicinity of nostril for 10 minutes, 30 minutes after the presentation, FIG. 1
Procedure: Focusing attention on aromatic components contained in a Melissa essential oil, one of plant essential oils, various aromatic compositions were presented to male Wister strain rats, and evaluation of change in caudal arterial pressure before and after the presentation was conducted. The test was carried out under conditions that avoid stress which may be placed on the rat as less as possible, and thus can be kept calm in an environment of the measurement of the blood pressure.
Male Wister strain rats of 7-week old were purchased, and after one week acclimatization period, the blood pressure was measured on 8-week old. All experimental animals were kept under a 12:12 light-dark cycle (light period: from 8 AM to 8 PM), with allowing for free access to chow and drinking water.
Training for adaptation of the 7-week old rat to a holder for the blood pressure measurement was carried out for one week. […]
For three days after completing the training, change in the blood pressure was measured upon presentation of the aromatic composition to the rats. […] The blood pressures before and after 30 minutes from presenting the aromatic compositions were measured, and the changes of the blood pressures were compared. […]

Structure (SMILES)	change in diastolic blood pressure (caudal arterial pressure) after presentation compared with the values before the presentation
CC(C)=CCCC(C)=CC=O [citral]	lowering of the blood pressure
C=CC(C)(O)CCC=C(C)C (centres unmarked) [linalool]	lowering of the blood pressure
